Measurements published in patent US4006225A, “Method of using reduction products of everninomicins as antibacterial agents and pharmaceutical compositions useful therefor” (Schering Corporation, priority 1975, dated 1977).
Values after ≈ are worked out from the molar mass of the structure shown. Values joined by “and” are separate entries in the source; they are usually repeats but may differ in a detail not shown here. Identical values can stand only once. “Also recorded” adds a separate entry of the source. Counter-ions that a name gives are not always drawn. Like-named read-outs stand apart in the source and are kept apart here.

Legend:
[1] = system: S. aureus (A.T.C.C. 6538p); assay: microbiological assay (bioassay), cup-type agar diffusion; assay type: cell-based
Protocol: The microbiological assay (also called the bioassay) is effected microbiologically by a standard cup-type agar diffusion assay technique using S. aureus (A.T.C.C. 6538p) as test organism. A reference curve is prepared by plotting the dosage-response of the antibacterial agent in ethanol diluted by phosphate buffer at pH7 upon a medium of the following composition which has been inoculated with the test organism (i.e. S. aureus): A suspension of the assay organism (S. aureus A.T.C.C. 6538p) is standardized to produce 20% transmission at 660 mμ in a colorimeter. The potency of the sample is determined from the reference curve and expressed in terms of units per milligram (a unit being that amount of test substance required to produce a 15 mm zone of inhibition with a steel cylinder of 6.5 mm outside diameter).

[2] = system: Staphylococcus and Streptococcus; assay: in vitro susceptibility of gram-positive microorganisms, standard tube dilution (MIC); assay type: cell-based; conditions: for MIC: Staphylococcus and Streptococcus, 24 hours at 37° C, Penassay broth; for antibacterial activity compared with everninomicin D: gram-positive bacteria
Protocol: The comparative in vitro activities of nitrosoeverninomicin D and the sodium salt thereof, hydroxylaminoeverninomicin D and the sodium salt and N-methylglucamine salt thereof, hydroxylaminoeverninomicin D benzyl nitrone N-methylglucamine salt, hydroxylaminoeverninomicin B and hydroxylaminoeverninomicin C are set forth in Table 1 below. The susceptibility of the test gram-positive microorganisms to the antibacterials was determined by standard tube dilution methods. In each instance 10^^-5 dilutions of 24-hour broth cultures were employed as inoculum with the endpoints being taken after incubation for 24 hours at 37° C in a Difco […] broth medium (Difco Labs., Detroit, Michigan). In the tables, the activity (or assay value) of each respective antibacterial agent is expressed in units per milliliter or micrograms per milliliter.

[3] = system: N.gonorrhea and N.meningitidis; assay: in vitro susceptibility of gram-negative microorganisms, plate dilution in Thayer-Martin medium (MIC); assay type: cell-based, Neisseria gonorrhea and Neisseria meningitidis; conditions: for MIC: N.gonorrhea and N.meningitidis, Thayer-Martin medium
Protocol: The susceptibility of the gram-negative microorganisms to the antibacterials was determined by plate dilution methods in Thayer-Martin medium by the known Thayer-Martin procedure.

[4] = acute toxicity (LD50) in mice; conditions: mouse, in vivo; for LD50 in mice I.P. (mg/kg): ip; for LD50 in mice I.V. (mg/kg): iv; for LD50 in mice S.C. (mg/kg): sc
Protocol: The acute toxicity (LD50) of the antibacterial substances in either aqueous suspensions or aqueous solutions is measured in milligrams per kilogram in standard manner using male CF-1 mice weighing 20 grams.

[5] = peak serum levels in dogs; assay type: in vivo; conditions: dog, 10 mg/kg I.M.
Protocol: (§1) In determining peak serum levels, the animal tested (e.g. dog or rat) is given a single dose of 10 or 25 mg/kg of everninomicin D or derivative thereof of this invention, blood samples are taken periodically, and the serum thereof is assayed for anti-bacterial activity by an agar-diffusion-assay as described by Weinstein et al., Antimicrobial Agents and Chemotherapy, p 24 (1964).

[6] = peak serum levels in rats; assay type: in vivo; conditions: rat, 25 mg/kg S.C.
Protocol: as §1

[7] = absorption, serum levels and excretion after injection compared with everninomicin D; assay type: in vivo; conditions: by injection
Protocol: as §1

[8] = pKa of purified everninomicin D; assay type: physicochemical

`COCC1OC(OC2OCC3OC4(OCC(O)(C(C)OC)C5OCOC54)OC3C2OC)C(OC)C(O)C1OC1OC(C)C(OC)C(OC2CC3(C)OC4(CC(O)C(OC5CC(OC6CC(C)([N+]([O-])=Cc7ccccc7)C(OC)C(C)O6)C(OC(=O)c6c(C)c(Cl)c(O)c(Cl)c6OC)C(C)O5)C(C)O4)OC3C(C)O2)C1O` (stereo not drawn) [hydroxylaminoeverninomicin D benzyl nitrone] showed a Bioassay [1] of 1309.0 µg/mL.

Compound `CCCCCCC=[N+]([O-])C1(C)CC(OC2CC(OC3C(O)CC4(OC3C)OC3C(C)OC(OC5C(O)C(OC6C(COC)OC(OC7OCC8OC9(OCC(O)(C(C)OC)C%10OCOC%109)OC8C7OC)C(OC)C6O)OC(C)C5OC)CC3(C)O4)OC(C)C2OC(=O)c2c(C)c(Cl)c(O)c(Cl)c2OC)OC(C)C1OC` (stereo not drawn) [hydroxylaminoeverninomicin D heptyl nitrone] has a Bioassay [1] of 892 µg/mL.

For `COCC1OC(OC2OCC3OC4(OCC(O)(C(C)OC)C5OCOC54)OC3C2OC)C(OC)C(O)C1OC1OC(C)C(OC)C(OC2CC3(C)OC4(CC(O)C(OC5CC(OC6CC(C)(NO)C(OC)C(C)O6)C(OC(=O)c6c(C)c(Cl)c(O)c(Cl)c6OC)C(C)O5)C(C)O4)OC3C(C)O2)C1O` (stereo not drawn) [Hydroxylaminoeverninomicin D sodium salt, hydroxylaminoeverninomicin D sodium salt], the “MIC” value ([2]; sodium salt) was 0.08 to 0.8 µg/mL, the “antibacterial activity compared with everninomicin D” value ([2]; sodium salt) was “antibacterial activity comparable to that of the everninomicin D precursor; also recorded: comparable antibacterial activity against gram-positive bacteria” and the MIC ([3]; Neisseria meningitidis, read-out: MIC) was 0.2 to 1 µg/mL. For the same compound, the “LD50 in mice I.P. (mg/kg)” value [4] was 500, the “LD50 in mice I.V. (mg/kg)” value [4] was 30 and the “LD50 in mice Oral (mg/kg)” value [4] was over 2000. For the same compound, the “LD50 in mice S.C. (mg/kg)” value [4] was 500, the “Peak serum levels in dogs” value [5] was 20 to 30 µg/mL and the “Peak serum levels in rats” value [6] was 30 to 40 µg/mL. The “absorption compared with everninomicin D” value [7] was “more rapidly absorbed”, the “excretion compared with everninomicin D” value [7] was “more rapidly excreted than everninomicin D” and the “serum levels compared with everninomicin D” value [7] was “higher serum levels”.

With `COCC1OC(OC2OCC3OC4(OCC(O)(C(C)OC)C5OCOC54)OC3C2OC)C(OC)C(O)C1OC1OC(C)C(OC)C(OC2CC3(C)OC4(CC(O)C(OC5CC(OC6CC(C)(N=O)C(OC)C(C)O6)C(OC(=O)c6c(C)c(Cl)c(O)c(Cl)c6OC)C(C)O5)C(C)O4)OC3C(C)O2)C1O` (stereo not drawn) [Nitrosoeverninomicin D, nitrosoeverninomicin D] the MIC ([2]; 24 h, read-out: MIC) was 0.08 to 0.8 µg/mL (≈ 0.0526 to 0.526 µM), the Bioassay [1] was 1460 µg/mL and the “Peak serum levels in dogs” value [5] was 6 µg/mL. For the same compound, the “Peak serum levels in rats” value [6] was 10 to 11 µg/mL.

In the case of `COCC1OC(OC2OCC3OC4(OCC(O)(C(C)OC)C5OCOC54)OC3C2OC)C(OC)C(O)C1OC1OC(C)C(OC)C(OC2OC(C)C3OC4(CC(O)C(OC5CC(OC6CC(C)(NO)C(OC)C(C)O6)C(OC(=O)c6c(C)c(Cl)c(O)c(Cl)c6OC)C(C)O5)C(C)O4)OC3(C)C2O)C1O` (stereo not drawn) [Hydroxylaminoeverninomicin B, hydroxylaminoeverninomicin B], the MIC ([2]; 24 h, read-out: MIC) is reported as 0.1 to 1 µg/mL (≈ 0.065 to 0.65 µM).

With `COCC1OC(OC2OCC3OC4(OCC(O)(C(C)OC)C5OCOC54)OC3C2OC)C(OC)C(O)C1OC1OC(C)C(OC)C(OC2CC3(C)OC4(CC(O)C(OC5CC(OC6CC(C)([N+]([O-])=Cc7ccco7)C(OC)C(C)O6)C(OC(=O)c6c(C)c(Cl)c(O)c(Cl)c6OC)C(C)O5)C(C)O4)OC3C(C)O2)C1O` (stereo not drawn) [hydroxylaminoeverninomicin D furfuryl nitrone] the Bioassay [1] was 1063.4 µg/mL.

In the case of `COCC1OC(OC2OCC3OC4(OCC(O)(C(C)OC)C5OCOC54)OC3C2OC)C(OC)C(O)C1OC1OC(C)C(OC)C(OC2CC3(C)OC4(CC(O)C(OC5CC(OC6CC(C)(NO)C(OC)C(C)O6)C(OC(=O)c6c(C)c(Cl)c(O)c(Cl)c6OC)C(C)O5)C(C)O4)OC3C(C)O2)C1O` (stereo not drawn) [Hydroxylaminoeverninomicin D, hydroxylaminoeverninomicin D], the “MIC” value [2] is reported as 0.3 to 0.8 µg/mL, the “antibacterial activity compared with everninomicin D” value [2] is reported as “antibacterial activity comparable to that of everninomicin D; also recorded: comparable antibacterial activity against gram-positive bacteria” and the “activity against certain gram-negative bacteria” value ([3]; certain gram-negative bacteria, in words) is reported as “certain gram-negative bacteria are also susceptible”. The “absorption compared with everninomicin D” value [7] was “more rapidly absorbed”.

In the case of `COCC1OC(OC2OCC3OC4(OCC(O)(C(C)OC)C5OCOC54)OC3C2OC)C(OC)C(O)C1OC1OC(C)C(OC)C(OC2CC3(C)OC4(CC(O)C(OC5CC(OC6CC(C)([N+](=O)[O-])C(OC)C(C)O6)C(OC(=O)c6c(C)c(Cl)c(O)c(Cl)c6OC)C(C)O5)C(C)O4)OC3C(C)O2)C1O` (stereo not drawn) [Everninomicin D, everninomicin D, reference compound], the MIC ([2]; 24 h, read-out: MIC) is reported as 0.03 to 0.3 µg/mL (≈ 0.0195 to 0.195 µM), the “LD50 in mice I.P. (mg/kg)” value [4] is reported as over 3800 and the “LD50 in mice I.V. (mg/kg)” value [4] is reported as 125. The “LD50 in mice Oral (mg/kg)” value [4] was over 3800, the “LD50 in mice S.C. (mg/kg)” value [4] was over 3800 and the “Peak serum levels in dogs” value [5] was 2 to 3 µg/mL. For the same compound, the “Peak serum levels in rats” value [6] was 10 to 12 µg/mL and the pKa [8] was 7.2.

In the case of `COCC1OC(OC2OCC3OC4(OCC(O)(C(C)OC)C5OCOC54)OC3C2OC)C(OC)C(O)C1OC1OC(C)C(OC)C(OC2CC3(C)OC4(CC(O)C(OC5CC(OC6CC(C)(N=O)C(OC)C(C)O6)C(OC(=O)c6c(C)c(Cl)c(O)c(Cl)c6OC)C(C)O5)C(C)O4)OC3C(C)O2)C1O` (stereo not drawn) [Nitrosoeverninomicin D sodium salt, nitrosoeverninomicin D sodium salt], the “MIC” value ([2]; sodium salt) is reported as 0.08 to 3 µg/mL.

For `COCC1OC(OC2OCC3OC4(OCC(O)(C(C)OC)C5OCOC54)OC3C2OC)C(OC)C(O)C1OC1OC(C)C(OC)C(OC2CC3(C)OC4(CC(O)C(OC5CC(OC6CC(C)([N+]([O-])=Cc7ccccc7)C(OC)C(C)O6)C(OC(=O)c6c(C)c(Cl)c(O)c(Cl)c6OC)C(C)O5)C(C)O4)OC3C(C)O2)C1O` (stereo not drawn) [hydroxylaminoeverninomicin D benzyl nitrone N-methylglucamine salt], the “Peak serum levels in dogs” value [5] was 1 to 2 µg/mL and the “Peak serum levels in rats” value ([6]; 25 mg/kg) was 10 to 12 µg/mL and 9 µg/mL.

With `COCC1OC(OC2OCC3OC4(OCC(O)(C(C)OC)C5OCOC54)OC3C2OC)C(OC)C(O)C1OC1OC(C)C(OC)C(OC2CC3(C)OC4(CC(O)C(OC5CC(OC6CC(C)(NO)C(OC)C(C)O6)C(OC(=O)c6c(C)c(Cl)c(O)c(Cl)c6OC)C(C)O5)C(C)O4)OC3C(C)O2)C1O` (stereo not drawn) [Hydroxylaminoeverninomicin D N-methylglucamine salt] the “MIC” value [2] was 0.08 to 0.8 µg/mL, the “MIC” value [3] was 0.2 to 1.0 µg/mL and the “LD50 in mice I.P. (mg/kg)” value [4] was 500. For the same compound, the “LD50 in mice I.V. (mg/kg)” value [4] was 30, the “LD50 in mice Oral (mg/kg)” value [4] was over 2000 and the “LD50 in mice S.C. (mg/kg)” value [4] was 500. The “Peak serum levels in dogs” value [5] was 20 to 30 µg/mL and the “Peak serum levels in rats” value [6] was 30 to 40 µg/mL.

`COCC1OC(OC2OCC3OC4(OCC(O)C5OCOC54)OC3C2OC)C(OC)C(O)C1OC1OC(C)C(OC)C(OC2CC3(C)OC4(CC(O)C(OC5CC(OC6CC(C)(NO)C(OC)C(C)O6)C(OC(=O)c6c(C)c(Cl)c(O)c(Cl)c6OC)C(C)O5)C(C)O4)OC3C(C)O2)C1O` (stereo not drawn) [Hydroxylaminoeverninomicin C, hydroxylaminoeverninomicin C] showed an MIC ([2]; 24 h, read-out: MIC) of 0.1 to 0.8 µg/mL (≈ 0.0682 to 0.546 µM) and a Cmax ([5]; serum, im) of 15000 ng/mL.
